Laboratory results published in patent publication US7785705B2, “Flower thinning agent” (priority 2002, dated 2010).

Experiments:
[1] = tested on: pear (Kosui) tree; assay: Flower thinning effect on pear (Kosui) tree, agent spread two times, at a flowering rate of 30% and 80%; format: in vivo
Source text: (§1) Using a pear (Kosui) tree, flower thinning effect was confirmed. That is, using the aforementioned pear tree, the flower thinning agent of Example 1 was spread at a concentration indicated in Table 6 two times, at a flowering rate of 30% and 80%. […] Treatment was every branch treatment, and the agent was spread with a back loading sprayer.
(§2) Assessment was expressed as a remaining fruit rate relative to the number of flowering. Regarding medicine damage, results of observation of a leaf state such as defoliation, discolored leaf and deformed leaf were expressed by the following five stages.
(§3) An effective ingredient concentration was based on a solid matter weight of a lime and sulfur agent.
(§4) An effective ingredient concentration was based on a solid matter weight of itaconic acid.
(§5) An effective ingredient concentration was based on a solid matter weight of high purity lecithin.

[2] = tested on: grape (King Dela) tree; assay: Flower thinning effect on grape (King Dela) tree, agent spread two times, at a flowering rate of 30% and 80%; format: in vivo
Source text: Using a grape (King Dela) tree, flower thinning effect was confirmed.
Assessment was expressed as a remaining fruit rate regarding the number of flowering.

[3] = tested on: pear (Kosui) tree; assay: Flower thinning effect on pear (Kosui) tree at low air temperature and bad weather; details: low air temperature at flowering, bad weather
Source text: as §1, with “10” for “6”, “80%. In this respect, at the present experiment, an air temperature at flowering was low, and weather was bad. Therefore, a scatter in flowering was greater than usual.” for “80%.”
as §2
According to the same manner as that of Application Example 64 except that any of the flower thinning agents of Examples 4, 5, 7, 9, 15 and 21, and Comparative Examples 1, 4, 8 and 10 was used in place of the flower thinning agent of Example 1, an experiment was performed.
as §3, §4, §5
An effective ingredient concentration was based on a solid matter weight of calcium formate.

[4] = tested on: apple (Fuji) tree; assay: Flower thinning effect on apple (Fuji) tree, agent spread two times, one day and three days after full blooming of a central flower; format: in vivo
Source text: Using an apple (Fuji) tree, flower thinning effect was confirmed. […] Assessment was expressed by a remaining fruit rate regarding a central flower and a lateral flower.

[5] = effective ingredient conc. 0.33%
[6] = effective ingredient conc. 1.00%

SMILES	Remaining fruit rate (%) [1, 5] [%]	Remaining fruit rate (%) [1, 6] [%]	Remaining fruit rate (%) [2, 5] [%]	Remaining fruit rate (%) [2, 6] [%]	Remaining fruit rate (%) [3, 5] [%]	Remaining fruit rate (%) [3, 6] [%]	Fruition rate (%) Central flower [4, 5] [%]	Fruition rate (%) Lateral flower [4, 5] [%]	Fruition rate (%) Central flower [4, 6] [%]	Fruition rate (%) Lateral flower [4, 6] [%]	Remaining fruit rate (%) ([3]; effective ingredient conc. 0.15%)	Remaining fruit rate (%) ([3]; effective ingredient conc. 0.45%)
C=C(CC(=O)O)C(=O)O [itaconic acid]	57.9	53.3	57.5	53.0	70.0	63.9	88.2	57.9	85.4	50.3		
O=C[O-].O=C[O-].[Ca+2] [calcium formate]											79.9	72.3
